From patent publication US8148359B2, “Chelating agents of metal ions, their methods of preparation and their applications” (Commissariat a l'Energie Atomique, priority 2009, dated 2012)
Where two headings read alike, the source gives them in different places.

Experiments:
[1] = pH = 7.4; difference matches the Cu(II) and Zn(II) values of the table
Description: (§1) In general, the formation of a complex from a metal M and n ligands L is written: M+nL⇄[M(L)n]
(§2) Associated with this reaction is an apparent complexation constant log Kapp, where: Kapp=[ML]/[M][L]tot in which: • [ML] is the concentration of complex, • [M] is the concentration of metal, and • [L]tot is the concentration of […] ligand (whatever its protonated form).

[2] = Apparent complexation constants of known chelating agents, Hg(II); type: binding; settings: pH = 7.4; log Kapp(Hg) - log Kapp(Zn)
Description: as §1, §2

[3] = Cu(I) affinity by competition with bathocuproine disulfonate (BCS), UV-visible; type: binding; settings: for Cu/Zn Sel. (log Kapp(Cu) - log Kapp(Zn)): Cu(I) versus Zn(II); for BCS equivalents (number of equivalents of BCS relative to Cu necessary to displace 50% of the copper complexed by the ligand): [Cu]0 = 0.9 [L]o, 20 mM phosphate buffer, pH 7.4, 298 K; for Kapp for Cu(I): pH 7.4, 20 mM phosphate buffer
Protocol: Since the —SH thiol functions of the chelating agents are capable of becoming oxidized in air, all the solutions were prepared in a glovebox under an argon atmosphere. Ligand solutions were then prepared, before each experiment, using water that had been deoxygenated and purified with a Millipore Milli-Q® system containing 20 mM of a solution of phosphate buffer (pH=7.4) and of acetonitrile (v/v: 9/1).
This method uses 5,5′-dithiobis-2-nitrobenzoic acid (DNTB) as indicator, each free thiol group present in the ligand producing 1 equivalent of TNB^2− (ε^412 nm (TNB^2−)=14 150 M^−1.cm^−1, ε^412 nm being the molar extinction coefficient for TNB^2− at 412 nm). The concentrations of the ligand solution are between 30 and 100 μm.
The solutions of Cu(I) copper were prepared by dissolving an appropriate amount of Cu(CH3CN)4 PF6 in deoxygenated acetonitrile. The final concentration is determined by adding an excess of sodium bathocuproine disulfonate (Na2BCS) and by measuring the absorbance of the Cu(BCS)2^3− (λmax=483 nm, ε=13 300 M^−1.cm^−1).
The affinity constants were measured by means of a known competitor having a strong affinity for Cu(I), bathocuproine disulfonate (BCS), which forms Cu(I) complexes of known stability according to the reaction below:
The higher this percentage, the higher the affinity of the sulfur-containing ligand for Cu(I).
The complexes of Cu(I) copper with the ligands are quantitatively determined with bathocuproine disulfonate (BCS) with the aim of measuring their affinity constants. […] The formation of the complex is then carried out by stirring the mixture for 10 minutes under argon.
Aliquots of a solution of bathocuproine disulfonate (BCS) in the same buffer solution are then added to the ligand-copper complex.
The UV-visible spectra are then recorded, and the absorbance stability is verified before the addition of the other aliquots.

[4] = Apparent complexation constants of known chelating agents, Cu(I); type: binding; settings: pH = 7.4; difference matches the Cu(I) and Zn(II) values of the table
Description: Associated with this reaction is an apparent complexation constant log Kapp, where: Kapp=[ML]/[M][L]tot in which: • [ML] is the concentration of complex, • [M] is the concentration of metal, and • [L]tot is the concentration of free ligand (whatever its protonated form).

[5] = Hg(II) affinity by competition with EDTA; type: binding
Protocol: For Hg(II), which has a very high affinity for thiolate ligands, we performed a competition with EDTA having a known affinity constant (cf. Table IV) according to the following reaction: HgL+EDTA→L+HgEDTA
A solution of mercury is prepared by dissolving HgCl2 in water. An HgL complex is formed by adding aliquots of this mercury solution to a solution of ligand in a 20 mM phosphate buffer solution at pH=7.4, up to 0.9 equivalent. The change in the LMCT band for Hg(II) at 290 nm is subsequently followed by titration with a 5 mM solution of Na2EDTA.

O=C(O)CN(CCN(CC(=O)O)CC(=O)O)CC(=O)O [EDTA, ethylenediaminetetraacetic acid]
Cu/Zn selectivity [1]: 2.3 | Hg/Zn selectivity [2]: 5

CCOC(=O)[C@H](CS)NC(=O)CN1CCN(CC(=O)N[C@@H](CS)C(=O)OCC)CCN(CC(=O)N[C@@H](CS)C(=O)OCC)CC1 [Compound 9, NOTA(CysOC2H5)3]
Cu/Zn Sel. (log Kapp(Cu) - log Kapp(Zn)) [3]: 7.5-9.5 | BCS equivalents (number of equivalents of BCS relative to Cu necessary to displace 50% of the copper complexed by the ligand) [3]: 12 equivalents

CC(C)(S)[C@@H](N)C(=O)O [Pen, D-penicillamine]
Cu/Zn selectivity [4]: 2.5 | Hg/Zn selectivity [2]: 9.1

NCCNCCNCCN [Trien, triethylenetetramine]
Cu/Zn selectivity [1]: 8.1 | Hg/Zn selectivity [2]: 12.7

O=C(CN(CC(=O)NC(CS)C(=O)O)CC(=O)NC(CS)C(=O)O)NC(CS)C(=O)O (stereo not drawn) [Compound 3, NTA(CysOH)3]
BCS equivalents (number of equivalents of BCS relative to Cu necessary to displace 50% of the copper complexed by the ligand) [3]: 3.5 equivalents

CCOC(=O)C(CS)NC(=O)CN(CC(=O)NC(CS)C(=O)OCC)CC(=O)NC(CS)C(=O)OCC (stereo not drawn) [Compound 4, NTA(CysOC2H5)3]
Cu/Ca Sel. (log Kapp(Cu) - log Kapp(Ca)) ([3]; Cu(I) versus Ca(II)): >16 | Cu/Zn Sel. (log Kapp(Cu) - log Kapp(Zn)) [3]: 9.9 | BCS equivalents (number of equivalents of BCS relative to Cu necessary to displace 50% of the copper complexed by the ligand) [3]: 57 equivalents | Kapp for Cu(I) [3]: 10^19 | Hg/Ca Sel. (log Kapp(Hg) - log Kapp(Ca)) ([5]; Hg(II) versus Ca(II)): >19.5 | Hg/Zn Sel. (log Kapp(Hg) - log Kapp(Zn)) ([5]; Hg(II) versus Zn(II)): >13.4

NC(=O)[C@H](CS)NC(=O)CN(CC(=O)N[C@@H](CS)C(N)=O)CC(=O)N[C@@H](CS)C(N)=O [Compound 6, NTA(CysNH2)3]
BCS equivalents (number of equivalents of BCS relative to Cu necessary to displace 50% of the copper complexed by the ligand) [3]: 50 equivalents | Kapp for Cu(I) [3]: 10^19

OCC(S)CS (stereo not drawn) [BAL, 2,3-dimercaptopropanol]
Hg/Zn selectivity [2]: 12.2
